Measured values: patent US20070197512A1, “Carboxylic Acid Compounds and Use Thereof” (Japan Tobacco Inc., priority 2006, published 2007)

Tests used:
CYP2C9 = target: T1, CYP2C9 (Homo sapiens, UniProt P11712); test: CYP inhibitory test using human liver microsome; format: in vitro ADME; details: model substrate diclofenac, 37° C., 10 min, read-out: CYP2C9 inhibition, IC50
T1 construct: Human liver microsome (20 mg protein/mL, 5 μL, Xenotech LLC, purchased from Lenexa Kans.); tissue Xenotech LLC; host or cells: human liver microsomes
Experimental: Experimental Example 2 CYP Inhibitory Test Using Human Liver Microsome
Human liver microsome (20 mg protein/mL, 5 μL, Xenotech LLC, purchased from Lenexa Kans.) was suspended in 100 mM potassium phosphate buffer (70 μL, pH 7.4), mixed with a solution (0.5 μL) of the Example compound dissolved in DMSO and preincubated at 37° C. for 5 min. NADPH producing system coenzyme solution (β-nicotinamide adenine dinucleotide phosphate: 5.2 mM, D-glucose-6-phosphate: 13.2 mM, magnesium chloride: 13.2 mM, glucose-6-phosphate dehydrogenase: 1.8 U/mL) 25 μL, and a model substrate (CYP3A4: midazolam 1 mM, CYP2D6: bufuralol 1 mM, CYP2C9: diclofenac 2 mM) 0.5 μL dissolved in DMSO were added to start the reaction. After incubation at 37° C. for 10 min., acetonitrile (200 μL) containing an internal standard substance (propranolol 1 μM) was added and the mixture was centrifuged (room temperature, 3000 rpm, 20 min). The amount of the metabolite produced from each model substrate in the supernatant was measured by high performance liquid chromatography/mass spectrometry (LC/MS/MS) and each CYP enzyme activity was determined. The concentration showing 50% inhibition (IC50) was calculated relative to the enzyme activity without addition of Example compound (DMSO 0.5 μL added) as 100%.
As a comparative example, the CYP enzyme activity of the compound described in JP-A-3-135917 was examined by determining the IC50 value in the same manner as above.

human URAT1 = target: T2, human URAT1 (Homo sapiens, UniProt Q96S37); test: Uric acid transport inhibitory test using human URAT1-expressing cells; format: cell-based; details: human URAT1-expressing HEK293 cells, 14C-uric acid 50 μM, uptake 5 min, room temperature; read-out: hURAT1 IC50
T2 construct: Human URAT1 full length cDNA was subcloned to expression vector pcDNA3.1; expressed in transfected cells; host or cells: HEK293 cells (pcDNA3.1, geneticin-selected)
T2 sequence (Q96S37 1-553): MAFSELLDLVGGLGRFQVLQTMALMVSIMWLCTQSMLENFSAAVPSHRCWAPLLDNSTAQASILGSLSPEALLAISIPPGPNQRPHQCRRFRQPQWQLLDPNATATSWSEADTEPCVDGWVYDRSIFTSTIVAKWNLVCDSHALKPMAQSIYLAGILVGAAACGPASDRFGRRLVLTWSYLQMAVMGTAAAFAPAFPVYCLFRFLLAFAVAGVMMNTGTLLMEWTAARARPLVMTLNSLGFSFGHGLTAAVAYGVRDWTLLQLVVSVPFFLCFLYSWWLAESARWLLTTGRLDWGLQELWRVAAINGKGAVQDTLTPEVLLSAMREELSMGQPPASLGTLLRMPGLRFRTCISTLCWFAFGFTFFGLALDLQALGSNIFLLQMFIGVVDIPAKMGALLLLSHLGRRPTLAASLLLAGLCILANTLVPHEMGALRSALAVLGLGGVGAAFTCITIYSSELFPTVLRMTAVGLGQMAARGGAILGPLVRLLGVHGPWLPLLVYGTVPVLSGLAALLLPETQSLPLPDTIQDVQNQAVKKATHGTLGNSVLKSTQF
Summary of the method: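 HEK293 cells stably transfected with full-length human URAT1; mock-transfected HEK293 served as background. Uptake of 14C-uric acid (50 μM final) over 5 min at room temperature in Na-gluconate-substituted HBSS with compound, read by scintillation. IC50 derived from URAT1-specific transport (URAT1 minus mock, DMSO = 100%).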

T1 sequence (P11712 whole entry): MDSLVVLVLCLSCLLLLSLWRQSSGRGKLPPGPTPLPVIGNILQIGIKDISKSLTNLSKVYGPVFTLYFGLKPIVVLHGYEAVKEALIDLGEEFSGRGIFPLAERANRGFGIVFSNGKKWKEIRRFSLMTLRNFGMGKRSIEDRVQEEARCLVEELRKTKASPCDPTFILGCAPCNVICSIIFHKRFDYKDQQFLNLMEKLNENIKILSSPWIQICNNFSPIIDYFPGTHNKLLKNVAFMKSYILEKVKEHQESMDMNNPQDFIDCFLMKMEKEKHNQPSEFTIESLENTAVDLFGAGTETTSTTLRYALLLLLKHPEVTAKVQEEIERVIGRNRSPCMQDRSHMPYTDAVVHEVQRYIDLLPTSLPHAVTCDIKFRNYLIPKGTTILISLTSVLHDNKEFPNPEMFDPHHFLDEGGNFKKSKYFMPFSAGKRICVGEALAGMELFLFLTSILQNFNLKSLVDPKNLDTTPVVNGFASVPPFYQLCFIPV

Structure (SMILES) | IC50 (CYP2C9) [µM] | IC50 (human URAT1) [µM]
Cc1ccc2c(c1)N(C(=O)/C=C/C(=O)O)CC(C(C)C)O2 (stereo not drawn) [Example 64, (E)-4-(2-isopropyl-6-methyl-2,3-dihydrobenzo[1,4]oxazin-4-yl)-4-oxo-2-butenoic acid] | > 50 | 0.3 to 3
CC(C)[C@H]1Oc2c(Cl)cc(Cl)cc2N(CCC(=O)O)C1=O [Example 108, 3-((R)-6,8-dichloro-2-isopropyl-3-oxo-2,3-dihydrobenzo[1,4]oxazin-4-yl)propionic acid] | > 50 | < 0.3
Cc1cc(Cl)cc2c1O[C@@H](C(C)C)C(=O)N2CCC(=O)O [Example 110, 3-((S)-6-chloro-2-isopropyl-8-methyl-3-oxo-2,3-dihydrobenzo[1,4]oxazin-4-yl)propionic acid] | > 50 | 0.3 to 3
CC(C)c1cccc2c1OC(C(C)C)CN2C(=O)/C=C/C(=O)O (stereo not drawn) [Example 36, (E)-4-(2,8-diisopropyl-2,3-dihydrobenzo[1,4]oxazin-4-yl)-4-oxo-2-butenoic acid] | > 50 | 0.3 to 3
CC(C)c1cccc2c1OC(C(C)C)CN2C(=O)/C=C\C(=O)O (stereo not drawn) [Example 37, (Z)-4-(2,8-diisopropyl-2,3-dihydrobenzo[1,4]oxazin-4-yl)-4-oxo-2-butenoic acid] | > 50 | 0.3 to 3
Cc1cc(Cl)cc2c1OC(C(C)C)CN2C(=O)/C=C/C(=O)O (stereo not drawn) [Example 83, (E)-4-(6-chloro-2-isopropyl-8-methyl-2,3-dihydrobenzo[1,4]oxazin-4-yl)-4-oxo-2-butenoic acid] | > 50 | 0.3 to 3
Cc1c(Cl)cc2c(c1Cl)OC(C(C)C)C(=O)N2CCC(=O)O (stereo not drawn) [Example 94, 3-(6,8-dichloro-2-isopropyl-7-methyl-3-oxo-2,3-dihydrobenzo[1,4]oxazin-4-yl)propionic acid] | > 50 | < 0.3
Cc1cc(C)c2c(c1)N(CCC(=O)O)C(=O)[C@@H](C(C)C)O2 [Example 74, 3-((R)-2-isopropyl-6,8-dimethyl-3-oxo-2,3-dihydrobenzo[1,4]oxazin-4-yl)propionic acid] | > 50 | < 0.3
Cc1ccc2c(c1)OC(C(C)C)CN2C(=O)/C=C/C(=O)O (stereo not drawn) [Example 56, (E)-4-(2-isopropyl-7-methyl-2,3-dihydrobenzo[1,4]oxazin-4-yl)-4-oxo-2-butenoic acid] | > 50 | ≥ 3
CC(C)c1cccc2c1OC(C(C)C)C(=S)N2CCC(=O)O (stereo not drawn) [Example 16, 3-(2,8-diisopropyl-3-thioxo-2,3-dihydrobenzo[1,4]oxazin-4-yl)propionic acid] | > 50 | 0.3 to 3
Cc1cc(Cl)cc2c1O[C@H](C(C)C)C(=O)N2CCC(=O)O [Example 107, 3-((R)-6-chloro-2-isopropyl-8-methyl-3-oxo-2,3-dihydrobenzo[1,4]oxazin-4-yl)propionic acid] | > 50 | < 0.3
Cc1ccc2c(c1)N(C(=O)/C=C/C(=O)O)CC(c1ccccc1)O2 (stereo not drawn) [Example 65, (E)-4-(6-methyl-2-phenyl-2,3-dihydrobenzo[1,4]oxazin-4-yl)-4-oxo-2-butenoic acid] | > 50 | ≥ 3
Cc1cc(Cl)c2c(c1)N(CCC(=O)O)C(=O)[C@H](C(C)C)O2 [Example 109, 3-((S)-8-chloro-2-isopropyl-6-methyl-3-oxo-2,3-dihydrobenzo[1,4]oxazin-4-yl)propionic acid] | > 50 | 0.3 to 3
CC(C)c1cccc2c1OC(c1ccccc1)C(=O)N2CCC(=O)O (stereo not drawn) [Example 38, 3-(8-isopropyl-3-oxo-2-phenyl-2,3-dihydrobenzo[1,4]oxazin-4-yl)propionic acid] | > 50 | < 0.3
Cc1cc(C)c2c(c1)N(CCC(=O)O)C(=O)[C@H](C(C)C)O2 [Example 73, 3-((S)-2-isopropyl-6,8-dimethyl-3-oxo-2,3-dihydrobenzo[1,4]oxazin-4-yl)propionic acid] | > 50 | < 0.3
